Assay results: patent publication US7576094B2, “Spiro derivatives as lipoxygenase inhibitors” (Eli Lilly and Company, priority 2004, dated 2009)

Tests used:
[1] = target: T1, human recombinant 5-Lipoxygenase (Homo sapiens, UniProt P09917); experiment: 5-Lipoxygenase Enzyme Assay; assay type: biochemical; conditions: 70 μM arachidonic acid, 10 minute incubation at room temperature, FOX reagent, absorbance at 620 nm; read-out: inhibition of 5-Lipoxygenase with an IC50
T1 sequence (P09917 1-674): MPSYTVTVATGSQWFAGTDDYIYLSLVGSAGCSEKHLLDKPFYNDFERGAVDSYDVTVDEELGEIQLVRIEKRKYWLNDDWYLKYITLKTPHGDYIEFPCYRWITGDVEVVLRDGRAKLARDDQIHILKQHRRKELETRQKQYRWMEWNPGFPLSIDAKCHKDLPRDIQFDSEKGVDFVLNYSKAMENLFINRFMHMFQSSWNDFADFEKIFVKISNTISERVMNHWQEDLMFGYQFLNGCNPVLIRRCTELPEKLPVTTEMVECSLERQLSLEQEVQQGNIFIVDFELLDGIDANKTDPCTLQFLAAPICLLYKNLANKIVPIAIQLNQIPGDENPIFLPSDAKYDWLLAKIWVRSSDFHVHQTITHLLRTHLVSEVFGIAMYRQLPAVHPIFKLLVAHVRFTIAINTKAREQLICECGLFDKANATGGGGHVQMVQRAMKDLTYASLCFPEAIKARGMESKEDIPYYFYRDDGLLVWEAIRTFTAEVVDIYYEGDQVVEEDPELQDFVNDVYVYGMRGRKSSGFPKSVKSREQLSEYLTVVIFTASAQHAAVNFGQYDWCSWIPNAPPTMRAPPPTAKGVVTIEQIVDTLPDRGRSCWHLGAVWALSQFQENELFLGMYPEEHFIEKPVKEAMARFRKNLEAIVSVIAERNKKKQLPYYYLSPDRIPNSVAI
Method in brief: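 Recombinant human 5-LOX in 50 mM Tris-HCl pH 7.4 was preincubated with compound, then 70 μM arachidonic acid was added for 10 min at room temperature. Hydroperoxide was read by FOX reagent (ferric xylenol orange, 1 h complex formation) as absorbance at 620 nm. Five concentrations in triplicate were tested, starting at 10 μM.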

[2] = system: LTB4 production in human whole blood; experiment: Inhibition of LTB4 Production in Blood; assay type: cell-based; conditions: 1 h, 20 μM A23187, 60 minutes at 37° C., LTB4 in plasma by ELISA, read-out: protection against LTB4 at an EC50
Method in brief: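 Citrated human whole blood preincubated 15 min at 37 °C with compound (top final 30 μM, 1:3 dilutions, quadruplicate), then stimulated with 20 μM A23187 for 60 min at 37 °C. Plasma LTB4 quantified by ELISA; IC50 from percent inhibition versus vehicle.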

Molecule `Cc1c(O)cc2c(c1C)OC1(CCC1)CC2` [7,8-dimethyl-3,4-dihydrospiro[chromene-2,1′-cyclobutan]-6-ol] has an IC50 [1] of under 300 nM and an EC50 [2] of under 10000 nM.
Work on `Cc1c(C)c2c(c(C)c1O)CCC1(CC1)O2` [5,7,8-trimethyl-3,4-dihydrospiro[chromene-2,1′-cyclopropan]-6-ol] yielded an IC50 [1] of under 300 nM and an EC50 [2] of under 10000 nM.
`CO/N=C1\CC2(CCC2)Sc2c(C)c(C)c(O)c(C)c21` [6′-hydroxy-5′,7′,8′-trimethylspiro[cyclobutane-1,2′-thiochroman]-4′(3′H)-one O-methyloxime] showed an IC50 [1] of under 300 nM and an EC50 [2] of under 10000 nM.
`CCONC1CC2(CCC2)Sc2cc(C)c(O)c(C)c21` (stereo not drawn) [4′-(ethoxyamino)-5′,7′-dimethyl-3′,4′-dihydrospiro[cyclobutane-1,2′-thiochromen]-6′-ol] gave an IC50 [1] of under 300 nM and an EC50 [2] of under 10000 nM.
Work on `CCO/N=C/C1=Cc2c(cc(C)c(O)c2C)OC12CCC2` [6-hydroxy-5,7-dimethylspiro[chromene-2,1′-cyclobutane]-3-carbaldehyde O-ethyloxime] yielded an IC50 [1] of under 300 nM and an EC50 [2] of under 10000 nM.
`Cc1c(C)c2c(c(Cl)c1O)CCC1(CCC1)O2` [5-chloro-7,8-dimethyl-3,4-dihydrospiro[chromene-2,1′-cyclobutan]-6-ol] was tested, and the IC50 [1] was under 300 nM.
In the case of `Cc1c(C)c2c(c(C)c1O)C1(CCC1)CC(C)(C)S2` [2′,2′,5′,7′,8′-pentamethyl-2′,3′-dihydrospiro[cyclobutane-1,4′-thiochromen]-6′-ol], the IC50 [1] is reported as under 300 nM and the EC50 [2] is reported as under 10000 nM.
Molecule `Cc1cc2c(c(C)c1O)CCC1(CCC1)O2` [5,7-dimethyl-3,4-dihydrospiro[chromene-2,1′-cyclobutan]-6-ol] has an IC50 [1] of under 300 nM and an EC50 [2] of under 10000 nM.
In the case of `COC(C)C1=Cc2c(C)c(O)c(C)c(C)c2OC12CCC2` (stereo not drawn) [3-(1-methoxyethyl)-5,7,8-trimethylspiro[chromene-2,1′-cyclobutan]-6-ol], the IC50 [1] is reported as under 300 nM and the EC50 [2] is reported as under 10000 nM.
In the case of `CONC1CC2(CCC2)Sc2cc(C)c(O)c(C)c21` (stereo not drawn) [4′-(methoxyamino)-5′,7′-dimethyl-3′,4′-dihydrospiro[cyclobutane-1,2′-thiochromen]-6′-ol], the IC50 [1] is reported as under 300 nM and the EC50 [2] is reported as under 10000 nM.
`Cc1c(C)c2c(c(C)c1O)C1(CCC1)CCS2` [5′,7′,8′-trimethyl-2′,3′-dihydrospiro[cyclobutane, 1,4′-thiochromen]-6′-ol] showed an IC50 [1] of under 300 nM.
`CONC1CC2(CCC2)Sc2c(C)c(C)c(O)c(C)c21` (stereo not drawn) [4′-(methoxyamino)-5′,7′,8′-trimethyl-3′,4′-dihydrospiro[cyclobutane-1,2′-thiochromen]-6′-ol] was tested, and the IC50 [1] was under 300 nM and the EC50 [2] was under 10000 nM.
For `CCONC1CC2(CCC2)Sc2c(C)c(C)c(O)c(C)c21` (stereo not drawn) [4′-(ethoxyamino)-5′,7′,8′-trimethyl-3′,4′-dihydrospiro[cyclobutane-1,2′-thiochromen]-6′-ol], the IC50 [1] was under 300 nM and the EC50 [2] was under 10000 nM.
Molecule `Cc1cc2c(c(C)c1O)CC1(CCC1)CO2` [5,7-dimethylspiro[chroman-3,1′-cyclobutan]-6-ol] has an IC50 [1] of under 300 nM and an EC50 [2] of under 10000 nM.
`CCc1cc2c(c(CC)c1O)CC(CSCC(=O)OC)C1(CCC1)O2` (stereo not drawn) [methyl 2-((5,7-diethyl-6-hydroxyspiro[chroman-2,1′-cyclobutane]-3-yl)methylthio)acetate] gave an IC50 [1] of under 300 nM and an EC50 [2] of under 10000 nM.
Work on `CC(C)(C)c1cc2c(cc1O)CCC1(CCC1)O2` [7-tert-butyl-3,4-dihydrospiro[chromene-2,1′-cyclobutan]-6-ol] yielded an IC50 [1] of under 300 nM and an EC50 [2] of under 10000 nM.
For `CCONCC1=Cc2c(cc(C)c(O)c2C)OC12CCC2` [3-[(ethoxyamino)methyl]-5,7-dimethylspiro[chromene-2,1′-cyclobutan]-6-ol], the IC50 [1] was under 300 nM and the EC50 [2] was under 10000 nM.
Work on `Cc1c(O)c(C(C)(C)C)cc2c1CCC1(CCC1)O2` [7-tert-butyl-5-methyl-3,4-dihydrospiro[chromene-2,1′-cyclobutan]-6-ol] yielded an IC50 [1] of under 300 nM and an EC50 [2] of under 10000 nM.
Molecule `Cc1cc2c(c(C)c1O)C=CC1(CCC1)O2` [5,7-dimethylspiro[chromene-2,1′-cyclobutan]-6-ol] has an IC50 [1] of under 300 nM and an EC50 [2] of under 10000 nM.
